In patent US20140242707A1, “Compositions and Methods for Diagnosing Hypercoagulability and Hypocoagulability” (Philadelphia Health & Education Corporation d/b/a Drexel …, priority 2011, published 2014):

Tests used:
[1] = tested on: Pooled normal plasma; test: Thrombelastography of tissue factor-activated pooled normal plasma (Example 1); assay type: biochemical, human
Experimental: Pooled normal plasma (George King Bio-Medical, Overland Park, Kans., USA) anticoagulated with sodium citrate was utilized for experimentation. The lot of plasma used for all experimentation was #1853, with a prothrombin time of 12.3 sec, an activated partial thromboplastin time of 29.3 sec, and a fibrinogen concentration >250 mg/dl. The final volume for all subsequently described plasma sample mixtures was 359.2 μl. Sample composition consisted of 322 μl of plasma; 10 μl of tissue factor reagent (0.1% final concentration in dH2O; Instrumentation Laboratory, Lexington, Mass., USA), 3.6 μl of dH2O or dH2O containing the organic reductant phenylhydroxylamine (PHA, 0-30 mM final concentration, Sigma-Aldrich, Saint Louis, Mo., USA), 3.6 μl of dimethyl sulfoxide (DMSO) or DMSO with CORM-2 (0-400 μM final concentration; Sigma-Aldrich) and 20 μl of 200 mM CaCl2. PHA was chosen as the agent to convert fibrinogen-associated, heme-bound Fe^+2 to an Fe^+3 state (1978, Castro et al., Biochemistry 17:225-231; 1986, Harrison and Jollow, J Pharmacol Exp Ther 238:1045-1054; 1987, Harrison and Jollow, Mol Pharmacol 32:423-431; 1999, Ciccoli et al., Toxicol Lett 110:57-66). Stock solutions of CORM-2 were made just before each experiment. Tissue factor stock solution was kept on ice prior to use and was remade every two hours.
Plasma sample mixtures were placed in a disposable cup in a computer-controlled thrombelastograph hemostasis system (Model 5000, Haemoscope Corp., Niles, Ill., USA), with addition of CaCl2 as the last step to initiate clotting. Data were collected for 15 min at 37° C. Given that final clot strength is the sine quo non of fibrinogen concentration in plasma (2005, Nielsen et al., Acta Anaesthesiol Scand 49:222-231), and that elastic modulus (G, dyne/cm^2) is a measure of strength that can be determined by all commercially available thrombelastographs/thromboelastometers, G values were subsequently recorded for all samples.
Additional elastic modulus-based parameters previously described were determined for some of the experiments (2009, Nielsen et al., Fibrinolysis 20: 377-380; Nielsen et al., in press, Fibrinolysis; 2005, Nielsen et al., Acta Anaesthesiol Scand 49: 222-231; 2009, Nielsen et al., Blood Coagul Fibrinolysis 20: 448-455). The nomenclature used to describe these phenomena is as follows:
Time to maximum rate of thrombus generation (TMRTG): This is the time interval (min) observed prior to maximum speed of clot growth.
Maximum rate of thrombus generation (MRTG): This is the maximum velocity of clot growth observed (dynes/cm^2/sec).
Total Thrombus Generation (TTG): This is the total area under the velocity curve during clot growth (dynes/cm^2), representing the amount of clot strength generated during clot growth.
Thrombelastographic data are presented as mean±SD. Analyses of the effects of PHA before and after CORM-2 addition to plasma were conducted with one way analysis of variance with Holm-Sidak post hoc test (SigmaStat 3.1, Systat Software, Inc., San Jose, Calif., USA). Comparison between plasma exposed to 10 or 30 mM PHA was performed with an unpaired Student's t-test. The plasmatic strength response to increasing concentrations of CORM-2 was analyzed with one way analysis of variance with Holm-Sidakpost hoc test. Graphical representation of the data was generated with commercially available software (Origin 7.5, OriginLab Corp., Northampton, Mass., USA). A P value of <0.05 was considered significant.

[2] = tested on: Patient plasma; pooled normal plasma; test: Thrombelastography of Heartmate II VAD patient plasma and pooled normal plasma; assay type: biochemical, human; details: for change in clot strength (TTG) compared to normal plasma: VAD patient plasma, 100 μM CORM-2 or 30 mM PHA
Experimental: Shortly after induction of anesthesia and invasive monitoring placement, whole blood was collected from the patient's radial arterial catheter and immediately anticoagulated with sodium citrate (9 parts blood:1 part 0.105M sodium citrate). The blood was immediately centrifuged at 3000×g at room temperature, with plasma aliquoted and stored at −80° C. prior to thrombelastographic analyses subsequently described. Operation proceeded, with VAD replacement followed by discharge from the hospital three weeks later.
Patient plasma was subjected to thrombelastographic analysis for 30 min at 37° C. as previously described (Nielsen et al., 2009, Blood Coagul Fibrinolysis, 20: 377-380; Nielsen et al., 2011, Blood Coagul Fibrinolysis, 22: 657-661). Also, for qualitative/semi-quantitative comparison, four replicate samples of citrated, pooled normal plasma (George King Bio-Medical, Overland Park, Kans., USA) were subjected to identical thrombelastographic analyses. In brief, the final volume for all subsequently described plasma sample mixtures was 359.6 Sample composition consisted of 326 μl of plasma; 10 μl of tissue factor reagent (0.1% final concentration in dH2O; Diagnostica Stago S.A.S., Asnieres sur Seine, France), 3.6 μl of dH2O or dH2O containing the organic reductant phenylhydroxylamine (PHA, 30 mM final concentration, Sigma-Aldrich, Saint Louis, Mo., USA), or 3.6 μl of CORM-2 (100 μM final concentration; Sigma-Aldrich) and 20 μl of 200 mM CaCl2. The addition of CORM-2 determines if there are heme groups unbound by CO in plasma by increasing coagulation kinetics (Nielsen et al., 2011, Blood Coagul Fibrinolysis, 22: 657-661). PHA at this concentration rapidly converts heme-attached Fe^+2 to Fe^+3, the met-state, displacing CO and decreasing coagulation (Nielsen et al., 2011, Blood Coagul Fibrinolysis, 22: 657-661). […] Thrombelastographic variables previously described (Nielsen et al., 2009, Blood Coagul Fibrinolysis, 20: 377-380; Nielsen et al., 2011, Blood Coagul Fibrinolysis, 22: 657-661) were determined, and the results are depicted in FIG. 7 and FIG. 8.

[3] = tested on: human plasma; details: fibrinolytic environment; cited from earlier work

[C-]#[O+].[C-]#[O+].[C-]#[O+].[C-]#[O+].[C-]#[O+].[C-]#[O+].[Cl][Ru][Cl].[Cl][Ru][Cl] [CORM-2, tricarbonyldichlororuthenium (II) dimer]
elastic modulus (G), concentration-response ([1]; 0-200 μM CORM-2, 5 min, no PHA): sigmoidal increase
MRTG ([1]; 100 μM CORM-2): 12.4 ± 1.4 dynes/cm^2/sec
TMRTG ([1]; 100 μM CORM-2): 2.46 ± 0.15 min
TTG ([1]; 100 μM CORM-2): 272 ± 21 dynes/cm^2
elastic modulus (G) ([1]; 100 μM CORM-2 vs unexposed plasma): significantly increased
difference in G, 200 μM vs 100 μM CORM-2 ([1]; no PHA): 10.1%
elastic modulus (G) ([1]; plasma exposed to 30 mM PHA 2 min, then 100, 200 or 400 μM CORM-2 5 min): no significant increase
change in clot strength (TTG) compared to normal plasma [2]: markedly decreased response
change in clot strength (TTG) ([2]; normal pooled plasma, 100 μM CORM-2): typical increase
increase in MRTG [3]: 120%
increase in TTG [3]: 113%

ONc1ccccc1 [PHA, phenylhydroxylamine]
elastic modulus (G) ([1]; PHA 10 mM 2 min prior to 100 μM CORM-2): significantly smaller than plasma not exposed to either compound
MRTG ([1]; PHA 10 mM alone): 3.6 ± 0.9 dynes/cm^2/sec
TMRTG ([1]; PHA 10 mM alone): 3.59 ± 0.60 min
TTG ([1]; PHA 10 mM alone): 99 ± 11 dynes/cm^2
elastic modulus (G) ([1]; PHA 10 mM alone): less than the other three conditions
elastic modulus (G) ([1]; PHA 30 mM added 5 min after 100 μM CORM-2): not different from plasma not exposed to either compound
MRTG ([1]; PHA 30 mM alone): 3.9 ± 0.8 dynes/cm^2/sec
TMRTG ([1]; PHA 30 mM alone): 3.91 ± 0.70 min
TTG ([1]; PHA 30 mM alone): 106 ± 8 dynes/cm^2
elastic modulus (G) ([1]; PHA 30 mM alone): significantly less than the other three conditions
elastic modulus (G), reduction of CORM-2 mediated increase ([1]; PHA 1 or 5 mM 2 min prior to 100 μM CORM-2): little effect
elastic modulus (G) ([1]; PHA 10 or 20 mM added 5 min after 100 μM CORM-2): negligible effects
change in clot strength (TTG) compared to normal plasma [2]: greater decrease
decrease in MRTG [3]: 30%
decrease in TTG [3]: 21%
